The values below come from patent publication US20250325570A1, “DOSE AND REGIMEN FOR A HETEROCYCLIC PHOSPHINIC COMPOUND” (PHOST'IN THERAPEUTICS, priority 2022, published 2025).

Values joined by “and” are separate entries in the source; they are usually repeats but may differ in a detail not shown here. Identical values can stand only once. Like-named read-outs stand apart in the source and are kept apart here.

Data set [1] in a line: Dynamic vapor sorption (DVS) analysis of the crystalline form. The data set is classed as physicochemical. The text has this:
In a particular embodiment, the crystalline form of the invention is non-hygroscopic.

A short description of data set [2]: First-in-human trial, dose escalation phase: full-course PK profiling of PST3.1a. The data set is classed as in vivo. The settings on record: for AUC / C-max / T1/2 / T-Max: oral; for Pre dosing: oral bid. An excerpt:
The proposed clinical trial is a first-in-human trial (FIH) in patients with advanced solid tumours, including a dose escalation phase (part I) enrolling patients with any type of tumour with safety/tolerability as the primary endpoint, pharmacokinetics, evaluation of a potential food effect, and efficacy as secondary endpoints, followed by an expansion phase (part II) recruiting patients with glioblastoma (GBM—23 patients, cohort 1), triple negative breast cancer (TNBC—15 patients, cohort 2) and other selected solid tumours (30 patients, cohort 3). The dose for the expansion phase is selected based on the results of the escalation phase. Pharmacodynamics and response prediction is an exploratory objective of this whole FIH study.
To characterize the pharmacokinetics (PK) profile of PST3.1a by establishing the PK profile of the drug including assessment of a potential food effect on drug exposure.
A standard 3+3 design is followed for the escalation phase. PST3.1a is administered orally twice a day (bid) continuously in cycles of 21 days. At each Dose Level (DL), three patients are included and the first patient is observed for at least 21 days before enrolling the following two. Three additional patients are enrolled at each DL if a Dose Limiting Toxicity (DLT) is observed in the first three patients. No intra-patient dose escalation is allowed. The Maximum Tolerated Dose (MTD) is defined as the highest dose at which a DLT is observed in 0/3 or 1/6 patients and is considered as the recommended phase 2 dose (RP2D).
The dose escalation phase includes two steps: • In step 1, one dose (DL1) of PST3.1a is tested, corresponding to the dose of 10 mg/kg/day bid.
Two full-course PK profiling are obtained for each patient: one at C1D1 (Cycle 1/Day 1) in fasted state patients and another at C2D1 (Cycle 2/Day 1) in fed state patients (omitting the evening dose of PST3.1a on CID1 and C2D1). • In step 2, three DL (DL2a to 4a) with PST3.1a administered to fasted patients at the dose of 20, 40 and 70 mg/kg/day bid (i.e. twice a day), respectively, and/or three DL (DL2b to 4b) with PST3.1a administered to fed patients at the dose of 10, 20 and 40 mg/kg/day bid, respectively, could be opened.
For each patient included in the second step of the dose escalation, a full-course PK profiling is performed: • a. for DL2a, 3a and 4a, at C1D1 in fasted state; • b. for DL2b, 3b and 4b at C1D1 in fed state; • c. for DL2b only, 4 days before beginning treatment (C1D4), in fasted state.
PST3.1a is supplied as a drinkable solution in vials of 2 mL and 10 mL. Patients are provided with an appropriate number of 2 mL and 10 mL vials, as well as with a specific dosing device, in order to combine them to reach the appropriate volume. Volumes of DP to be administered at each dosing occasion are rounded in a standardized way according to patient body weight range, as described in Table 2.
PST3.1a is administered per os every 12±1 hours to fasted patients or after a regular meal, according to the schedule of the DL in which the patient is included. Fasting is defined as no food intake for 2 hours before and two hours after study drug administration. Cycles is of 21 days. If treatment is delayed for reasons other than toxicity, a maximal delay of 1 day is accepted.

The mark [3] stands for this setting: DL1 = 10 mg/kg/day, FED patients.
The mark [4] stands for this setting: DL1 = 10 mg/kg/day, fasted patients.
[5] abbreviates: DL2 = 20 mg/kg/day, fasted patients.
[6] abbreviates: DL3 = 40 mg/kg/day, fasted patients.

As to `O=[P@@]1(c2ccccc2)O[C@H](COCc2ccccc2)[C@@H](OCc2ccccc2)[C@H](OCc2ccccc2)C1O` (some centres unmarked) [PST3.1a, 3-Hydroxy-4,5-bis-benzyloxy-6-benzyloxymethyl-2-phenyl-2-oxo-2λ5-[1,2]oxaphosphinane], the Hygroscopicity entry in data set [1] (crystalline form) is on record as “non-hygroscopic”. In data set [1] (relative humidity range 0% RH to 95% RH), the “Weight loss in DVS analysis” value is “lower than 0.1%”. Further, the “Food effect on drug exposure (fed vs fasted patients)” value in data set [2] (DL1 = 10 mg/kg/day, comparison of Table 4) is “significative fed effect”. Also, the AUC is 426 ng·h/mL in data set [2] (setting [3]); 225 ng·h/mL in data set [2] (setting [4]); 650.6 ng·h/mL and 626.6 ng·h/mL in data set [2] (setting [6]); 587 ng·h/mL in data set [2] (human, in vivo, po, 10 mg/kg/day, DL1 = 10 mg/kg/day, FED patients, read-out: AUC); 310 ng·h/mL in data set [2] (human, in vivo, po, 10 mg/kg/day, DL1 = 10 mg/kg/day, fasted patients, read-out: AUC); 340 ng·h/mL in data set [2] (human, in vivo, po, 20 mg/kg/day, DL2 = 20 mg/kg/day, fasted patients, read-out: AUC). The AUC in data set [2] (human, in vivo, po, 40 mg/kg/day, DL3 = 40 mg/kg/day, fasted patients, read-out: AUC) amounted to 336 ng·h/mL. The C-max was 43 ng/mL and 27.9 ng/mL in data set [2] (setting [3]); 42 ng/mL and 28 ng/mL in data set [2] (setting [4]); 67.7 ng/mL in data set [2] (setting [5]); 56.2 ng/mL and 97.6 ng/mL and 108.9 ng/mL in data set [2] (setting [6]). Also, the T1/2 in data set [2] (setting [3]) is 11.7 h; in data set [2] (setting [4]), 8.1 h. Moreover, the Pre dosing was 20.6 ng/mL in data set [2] (setting [5]); 25.4 ng/mL and 46.3 ng/mL in data set [2] (setting [6]). Further, the T-Max in data set [2] (setting [5]) was 1 h; in data set [2] (setting [6]), 1.5 h and 2 h (2×). The half-life in data set [2] (human, in vivo, po, 10 mg/kg/day, DL1 = 10 mg/kg/day, FED patients) was 17.5 h; in data set [2] (human, in vivo, po, 10 mg/kg/day, DL1 = 10 mg/kg/day, fasted patients), 9.2 h; in data set [2] (human, in vivo, po, 20 mg/kg/day, DL2 = 20 mg/kg/day, fasted patients) it was 7.9 h.
